Data as given in paper PMC3740200 (Dalton transactions (Cambridge, England : 2003), 2012).
Read-outs that look alike come from different tables or passages of the source.

Key:
DaCld(W227F) = DaCld(W227F) (Dechloromonas aromatica, UniProt Q47CX0, W261F); experiment: Equilibrium binding of heme ligands
WT DaCld = details: cited from earlier work
W156F DaCld = W156F DaCld (Dechloromonas aromatica, UniProt Q47CX0, W190F); experiment: Equilibrium binding of heme ligands
W156F DaCld, sequence (Q47CX0 32-282 W190F): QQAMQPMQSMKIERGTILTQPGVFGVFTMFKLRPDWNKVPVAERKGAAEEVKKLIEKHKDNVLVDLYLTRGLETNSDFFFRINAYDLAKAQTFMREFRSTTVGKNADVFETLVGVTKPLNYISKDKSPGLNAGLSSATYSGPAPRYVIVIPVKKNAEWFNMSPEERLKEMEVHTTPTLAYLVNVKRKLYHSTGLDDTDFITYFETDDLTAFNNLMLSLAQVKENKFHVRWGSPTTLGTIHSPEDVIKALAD

DaCld(W227F), sequence (Q47CX0 32-282 W261F): as the sequence (Q47CX0 32-282 W190F) above, with F159W, W230F counted along it

Compound	Kd (DaCld(W227F); pH 7)	Kd (WT DaCld; pH 7)	Kd (W156F DaCld; pH 7)	Kd (DaCld(W227F))	Kd (WT DaCld; pH 7, 100 mM phosphate, 25 °C, ref [16])	Kd (W156F DaCld)
[N-]=[N+]=[N-] [N3^-, azide]	7 ± 0.3 µM	8.3 ± 0.1 µM	34.5 ± 3.1 µM			
F [F^-, fluoride]		15000 ± 1000 µM		3800 ± 900 µM		
c1c[nH]cn1 [Imidazole]				17.5 ± 1.5 µM	9.6 ± 0.3 µM	26.6 ± 3.5 µM
